The text below walks through data of PMC3436077 (DARU Journal of Pharmaceutical Sciences, 2011).

One data set concerns P-glycoprotein (PGP). Put plainly: Apical-to-basal transwell transport across MDCK II cell monolayer. Particulars: dog, MDCK, M6G permeability in the presence of cyclosporine, MDCK II cells, cyclosporine (10 µM), PGP inhibitor.
Test in data set [1]: as above
Particulars: dog, MDCK.

In the next data set the test system is MDCK II cells. The description is as above.
For data set [2] the following is noted: mice; cited from earlier work.

Molecules are shown by their SMILES.

Take `CN1CC[C@]23c4c5ccc(O)c4O[C@H]2[C@@H](O[C@@H]2O[C@H](C(=O)O)[C@@H](O)[C@H](O)[C@H]2O)C=C[C@H]3[C@H]1C5` [M6G, Morphine-6-glucuronide]: the Papp (usually a coefficient for how fast a substance crosses the barrier) at 100 min amounted to 3.16 ± 0.01 ×10⁻⁶ cm/s in the data set on P-glycoprotein (PGP); 2.06 ± 0.02 ×10⁻⁶ cm/s in data set [1] (M6G permeability in the presence of d-glucose, d-glucose 5µ M, MDCK II, P < 0.05); 2.64 ± 0.11 ×10⁻⁶ cm/s in data set [1] (M6G permeability in the presence of digoxin, digoxin 5µ M, MDCK II, P < 0.05); 2.95 ± 0.06 ×10⁻⁶ cm/s in data set [1] (M6G permeability in the presence of probenecid, probenecid 10µ M, MDCK II, P > 0.05); 2.94 ± 0.03 ×10⁻⁶ cm/s in data set [1] (Permeability, MDCK II cells, A→B, 100 min, M6G 100 µg/ml, sucrose 8,000,000 DPM/ml, N=4). The Papp at 100 min, 100 µg/ml was found to be 3.31 ± 0.14 ×10⁻⁶ cm/s in data set [1] (Permeability ± SD in the presence of morphine, M6G 100 µg/ml + morphine 61,820 ng/ml, MDCK II) and 2.92 ± 0.02 ×10⁻⁶ cm/s in data set [1] (Permeability ± SD, M6G 100 µg/ml alone, MDCK II). In addition, in the data set with MDCK II cells (morphine value from earlier paper), the “M6G apical to basal movement relative to morphine (times lower)” value came to 10 times. In addition, the “Morphine in apical and basal chambers (de-glucuronidation of M6G)” value in the data set on MDCK II cells (t= 100 min, sensitive morphine assay) is “not a significant or detectable morphine”. In addition, the “Change of M6G brain uptake in the presence of digoxin” value in data set [2] is listed as “threefold reduction”.
